Counter-ions that a name gives are not always drawn. Like-named read-outs stand apart in the source and are kept apart here. Peptide text beside a SMILES is read from it.
Experiments:
[1] = Acute single dose toxicity in isotonic saline (ip, iv, sc); format: in vivo, Swiss CD1 mice; details: 5 days
Protocol: The acute, single dose toxicity of various indolicidin analogues is tested in Swiss CD1 mice using various routes of administration. In order to determine the inherent toxicities of the peptide analogues in the absence of any formulation/delivery vehicle effects, the peptides are all administered in isotonic saline with the final pH between 6 and 7.
After administration, the mice are observed for a period of 5 days.

A. calcoaceticus [2] = experiment: Broth dilution assay (MIC); format: cell-based; details: A. calcoaceticus AC001
Protocol: (§1) This assay also uses calcium and magnesium supplemented Mueller Hinton broth as the growth medium. Typically 100 μl of broth is dispensed into each well of a 96-well microtitre plate and 100 μl volumes of two-fold serial dilutions of the peptide analogue are made across the plate. One row of wells receives no peptide and is used as a growth control. Each well is inoculated with approximately 5×10^5 CFU of bacteria and the plate is incubated at 35-37° C. for 16-20 hours.
(§2) For example, MIC values were established for a series of peptide analogues against S. aureus strains.

E. cloacae [3] = experiment: Broth dilution assay (MIC); format: cell-based; details: E. cloacae ECL007
Protocol: as §1, §2

E. coli [4] = experiment: Broth dilution assay (MIC); format: cell-based; details: E. coli ECO005
Protocol: as §1, §2

E. faecalis [5] = experiment: Broth dilution assay (MIC); format: cell-based; details: E. faecalis EFS004
Protocol: as §1, §2

K. pneumoniae [6] = experiment: Broth dilution assay (MIC); format: cell-based; details: K. pneumoniae KP001
Protocol: as §1, §2

P. aeruginosa [7] = experiment: Broth dilution assay (MIC); format: cell-based; details: P. aeruginosa PA004
Protocol: as §1, §2

S. aureus [8] = experiment: Broth dilution assay (MIC); format: cell-based; details: S. aureus SA002
Protocol: as §1, §2

S. epidermidis = experiment: Broth dilution assay (MIC); format: cell-based; details: S. epidermidis SE005
Protocol: as §1, §2

S. maltophilia [9] = experiment: Broth dilution assay (MIC); format: cell-based; details: S. maltophilia SMA002
Protocol: as §1, §2

S. marcescens [10] = experiment: Broth dilution assay (MIC); format: cell-based; details: S. marcescens SMS003
Protocol: as §1, §2

Liposome dye release = format: biochemical
Protocol: In this example, a dye pair consisting of the fluorescent molecule 8-aminonapthalene-1,3,6-trisulfonic acid (ANTS) and its quencher molecule p-xylene-bis-pyridinium bromide (DPX) are used. The mixture of free dye molecules, dye free liposomes, and liposomes containing encapsulated ANTS-DPX are separated by size exclusion chromatography. In the assay, the test peptide is incubated with the ANTS-DPX containing liposomes and the fluorescence due to ANTS release to the outside of the liposome is measured over time.
Using this assay, peptide activity, measured by dye release, is shown to be extremely sensitive to the composition of the liposomes at many liposome to peptide ratios (L/P) (FIG. 7). […] This […] selectivity may mimic that observed […] for bacterial cells in the presence of mammalian cells.
ANTS/DPX can be replaced with fluorescein isothiocyanate-labeled dextran (FD-4), molecular weight 4,400, in the egg PC liposomes.

E.coli strain ML-35 = format: cell-based; details: for Growth time of cells at which maximum activity occurs: 50 μg/ml peptide
[11] = test system: MSSA (Smith, ATCC # 19640); experiment: MSSA infection, mouse survival; format: in vivo, mice; details: formulation D
[12] = test system: S. epidermidis (ATCC # 12228); experiment: S. epidermidis infection, mouse survival; format: in vivo, mice
MRSA (ATCC # 33591) = experiment: MRSA infection, mouse survival; format: in vivo, mice; details: for Percentage of Animals Surviving, Treatment: iv, formulation D
A. calcoaceticus [13] = experiment: MIC of APS-modified and parent peptides; format: cell-based; details: A. calcoaceticus AC002
E. cloacae [14] = experiment: MIC of APS-modified and parent peptides; format: cell-based; details: E. cloacae ECL007
E. coli [15] = experiment: MIC of APS-modified and parent peptides; format: cell-based; details: E. coli ECO005
E. faecalis [16] = experiment: MIC of APS-modified and parent peptides; format: cell-based
Protocol: (§3) All biological assays that compare APS-modified peptides with unmodified peptides are performed on an equimolar ratio. The concentration of APS-modified peptides can be determined by spectrophotometric measurement, which is used to normalize concentrations for biological assays.
(§4) APS-modified peptides are at least as potent as the parent peptides in in vitro assays performed as described herein. MIC values against gram positive bacteria are presented for several APS-modified peptides and compared with the values obtained using the parent peptides (Table 22).

S. aureus [17] = experiment: MIC of APS-modified and parent peptides; format: cell-based
Protocol: as §3, §4

K. pneumoniae [18] = experiment: MIC of APS-modified and parent peptides; format: cell-based; details: K. pneumoniae KP001
P. aeruginosa [19] = experiment: MIC of APS-modified and parent peptides; format: cell-based; details: P. aeruginosa PA004
S. maltophilia [20] = experiment: MIC of APS-modified and parent peptides; format: cell-based; details: S. maltophilia SMA002
S. marcescens [21] = experiment: MIC of APS-modified and parent peptides; format: cell-based; details: S. marcescens SMS003

Molecule	MIC (A. calcoaceticus [2]) [µg/mL]	MIC (E. cloacae [3]) [µg/mL]	MIC (E. coli [4]) [µg/mL]	MIC (E. faecalis [5]) [µg/mL]	MIC (K. pneumoniae [6]) [µg/mL]	MIC (P. aeruginosa [7]) [µg/mL]	MIC (S. aureus [8]) [µg/mL]	MIC (S. epidermidis) [µg/mL]	MIC (S. maltophilia [9]) [µg/mL]	MIC (S. marcescens [10]) [µg/mL]	Corrected MIC (A. calcoaceticus [13]) [µg/mL]	Corrected MIC (E. coli [15]) [µg/mL]	Corrected MIC (E. faecalis [16]; E. faecalis EFS001) [µg/mL]	Corrected MIC (E. faecalis [16]; E. faecalis EFS004) [µg/mL]	Corrected MIC (E. faecalis [16]; E. faecalis EFS008) [µg/mL]	Corrected MIC (S. aureus [17]; S. aureus SA010) [µg/mL]	Corrected MIC (S. aureus [17]; S. aureus SA014) [µg/mL]	Corrected MIC (S. aureus [17]; S. aureus SA018) [µg/mL]	Corrected MIC (S. aureus [17]; S. aureus SA025) [µg/mL]	Corrected MIC (S. maltophilia [20]) [µg/mL]	further results
CC[C@H](C)[C@H](N)C(=O)N[C@@H](CC(C)C)C(=O)N[C@@H](CCCCN)C(=O)N[C@@H](CCCCN)C(=O)N[C@@H](Cc1c[nH]c2ccccc12)C(=O)N1CCC[C@H]1C(=O)N[C@@H](Cc1c[nH]c2ccccc12)C(=O)N[C@@H](Cc1c[nH]c2ccccc12)C(=O)N1CCC[C@H]1C(=O)N[C@@H](Cc1c[nH]c2ccccc12)C(=O)N[C@@H](CCCNC(=N)N)C(=O)N[C@@H](CCCNC(=N)N)C(=O)N[C@@H](CCCCN)C(N)=O [MBI 11CN HCl, I L K K W P W W P W R R K] (H-ILKKWPWWPWRRK-NH2; N-terminus assumed)	–	–	–	–	–	–	–	–	–	–	–	–	–	–	–	–	–	–	–	–	LD90-100 [1]: 8.0 mg/kg
I L K K I P I I P I R R K [MBI 11A2CN]	>256	>256	>256	>256	>256	>256	>256	256	>256	>256	–	–	–	–	–	–	–	–	–	–	–
I L K K W P W W P W R R K [MBI 11CN]	–	–	–	–	–	–	–	–	–	–	4	16	32	8	64	2	16	64	4	128	Release of FD-4 (fluorescein isothiocyanate-labeled dextran, MW 4,400) (Liposome dye release; egg PC liposomes): No increase in FD-4 fluorescence is detected; Membrane permeabilizing activity (ANTS/DPX dye release) (Liposome dye release; egg PC liposomes with cholesterol added, even at very high lipid to peptide molar ratios): virtually abolishes membrane permeabilizing activity; ONPG hydrolysis diminished, cells pre-incubated with valinomycin vs no pre-incubation (E.coli strain ML-35): approximately 50%; mice rescued from MSSA infection ([11]; 35.7 mg/kg ip, 60 minutes post-infection): 100%; activity at lower dose levels ([11]; dose levels lower than 35.7 mg/kg ip): little or no activity; survival of mice ([12]; iv, formulation D, treatment 15 minutes post-infection): Efficacy is observed at all three dose levels; survival of mice ([12]; iv, formulation D, treatment 30 minutes post-infection): less activity; survival of mice ([12]; iv, formulation D, treatment 60 minutes post-infection): no significant effect; survival of mice ([12]; single iv injection of […] 15 minutes post-infection): best survival rate; survival of mice (MRSA (ATCC # 33591); 1 mg/kg (20 min) protocol: five […] iv injections at −10, −5, 0, +5, +10 mins): delayed the death of the mice to a significant extent; survival of mice (MRSA (ATCC # 33591); 1 mg/kg (2 hr) protocol: five […] iv injections 1 hour apart): no improvement in survivability over the negative control; survival of mice (MRSA (ATCC # 33591); 5 mg/kg protocol: three 5.5 mg/kg iv injections at −5, +55, +115 mins): no improvement in survivability over the negative control; Percentage of Animals Surviving, Treatment (MRSA (ATCC # 33591); 6 hours post-infection): 70%; Percentage of Animals Surviving, Treatment (MRSA (ATCC # 33591); 10 hours post-infection): 30%; Corrected MIC (E. cloacae [14]): >128 µg/mL; Corrected MIC (S. aureus [17]; S. aureus SA011): 8 µg/mL; Corrected MIC (S. aureus [17]; S. aureus SA093): 2 µg/mL; Corrected MIC (K. pneumoniae [18]): 128 µg/mL; Corrected MIC (P. aeruginosa [19]): >128 µg/mL; Corrected MIC (S. marcescens [21]): >128 µg/mL
I L P W K W P W W P W R R [MBI 10CN]	64	256	64	64	64	>256	16	8	64	>256	–	–	–	–	–	–	–	–	–	–	ONPG hydrolysis diminished, cells pre-incubated with valinomycin vs no pre-incubation (E.coli strain ML-35): approximately 50%; survival at lower doses ([11]; below 14.5 mg/kg ip): clear dose-dependent survival
I L R R W P W W P W R K [MBI 11B2CN]	128	>256	64	64	>256	256	32	4	32	>256	–	–	–	–	–	–	–	–	–	–	–
I L R R W P W W P W R R K [MBI 11B1CN]	64	>256	64	64	>256	64	32	4	32	>256	2	8	–	8	32	1	8	16	1	128	Corrected MIC (S. aureus [17]; S. aureus SA093): 1 µg/mL; Corrected MIC (P. aeruginosa [19]): 128 µg/mL; Corrected MIC (S. marcescens [21]): >128 µg/mL
I L R W P W W P W R R K [MBI 11B7CN]	64	>256	64	64	256	256	16	4	32	>256	–	8	8	8	32	–	–	–	–	32	Growth time of cells at which maximum activity occurs (E.coli strain ML-35; early mid-log): 140 min; Growth time of cells at which maximum activity occurs (E.coli strain ML-35; late mid-log): 230 min; Effect on membrane permeabilizing activity (E.coli strain ML-35; peptide pre-incubated in HEPES/sucrose buffer with 5 mM Mg2+): significant inhibition; Effect on membrane permeabilizing activity (E.coli strain ML-35; peptide pre-incubated in HEPES/sucrose buffer with 150 mM NaCl): significant inhibition
i L K K W P W W P W R R k [MBI 11E3CN]	–	–	–	–	–	–	–	–	–	–	2	8	8	2	16	1	4	16	1	64	Corrected MIC (E. cloacae [14]): >128 µg/mL; Corrected MIC (S. aureus [17]; S. aureus SA011): 4 µg/mL; Corrected MIC (S. aureus [17]; S. aureus SA093): 1 µg/mL; Corrected MIC (K. pneumoniae [18]): 8 µg/mL; Corrected MIC (P. aeruginosa [19]): 128 µg/mL; Corrected MIC (S. marcescens [21]): >128 µg/mL
